Data as given in PMC3346935 (2012).
Residues, ends and D or L forms follow the SMILES beside them.

Tests used:
[1] = tested on: RNA 40 (RNA, aptamer) GGCAAGUACUCUGACGCAAGGGUAGAUAUGCGUAUAUGCAGAUCCCAAAUAAAGGACGAAUUUAGUACGGGGGGUGUGCGUAGAGGAGGACAGCG; assay: isocratic affinity elution from His–Phe–Sepharose; conditions: 600 mM NaCl, 5 mM MgCl2, 5 mM CaCl2; 50 mM HEPES pH 7.0
[2] = tested on: RNA 7 (RNA, aptamer) GGCAAGUACUCUGACGCAGAUGGAAGUACCUUUGAACUGGGGGAGAAUGGUUAUGAGAAUCUAGCGAAGCCGGAGGUGCGUAGAGGAGGACAGCG; assay: isocratic affinity elution from His–Phe–Sepharose; conditions: 600 mM NaCl, 5 mM MgCl2, 5 mM CaCl2; 50 mM HEPES pH 7.0
[3] = tested on: RNA 8 (RNA, aptamer) GGCAAGUACUCUGACGCAGUGGAAGUUAUGUGUAUGCGGUAGAUAGGUAACGUUCUGUCAUAGGAAGGUACUAUCGUGCGUAGAGGAGGACAGCG; assay: isocratic affinity elution from His–Phe–Sepharose; conditions: 600 mM NaCl, 5 mM MgCl2, 5 mM CaCl2; 50 mM HEPES pH 7.0
[4] = tested on: RNA 25 (RNA, aptamer) GGCAAGUACUCUGACGCCGAAGCCAGCCGGCGAUUGGGAACGACGGAAUUCCUCACUUCUGUUAAAGGUCAACCAGGGCGUAGAGGAGGACAGCG; assay: isocratic affinity elution from His–Phe–Sepharose; conditions: 600 mM NaCl, 5 mM MgCl2, 5 mM CaCl2; 50 mM HEPES pH 7.0
[5] = tested on: RNA 22 (RNA, aptamer) GGCAAGUACUCUGACGCGAAAUGUACAUGGCGUUAAAGUAGACGCAGGAUUAAGUGUGCUGUGGAGUCGAAACGCGGGCGUAGAGGAGGACAGCG; assay: elution from His–Phe–Sepharose by free ligand; conditions: 600 mM NaCl, 5 mM MgCl2, 5 mM CaCl2; 50 mM HEPES pH 7.0; 1.5 mM dipeptide
[6] = tested on: RNA 24 (RNA, aptamer) GGCAAGUACUCUGACGCCCUGAGAGCGUAAUGUGACGGACAGUCGCACUGGAGGAGGAGGAAGUGAUGCAUCGAUCGGCGUAGAGGAGGACAGCG; assay: elution from His–Phe–Sepharose by free ligand; conditions: 600 mM NaCl, 5 mM MgCl2, 5 mM CaCl2; 50 mM HEPES pH 7.0; 1.5 mM dipeptide
[7] = tested on: RNA 13 (RNA, aptamer) GGCAAGUACUCUGACGCCUGAUGUGAUGGCCUUGGUCGAAGCGGGAUCCGACAGCUACUAUAGAGGUGUUGUCGAGGGCGUAGAGGAGGACAGCG; assay: elution from His–Phe–Sepharose by free ligand; conditions: 600 mM NaCl, 5 mM MgCl2, 5 mM CaCl2; 50 mM HEPES pH 7.0; 1.5 mM dipeptide
[8] = tested on: RNA 11 (RNA, aptamer) GGCAAGUACUCUGACGCGAGGGUGGAUACGUGUAUGCGGUUACAUCUGUGGUUUCUAAAAGAGCAAGCCGAUGUGGCGUAGAGGAGGACAGCG; assay: elution from His–Phe–Sepharose by free ligand; conditions: 600 mM NaCl, 5 mM MgCl2, 5 mM CaCl2; 50 mM HEPES pH 7.0; 1.5 mM dipeptide
[9] = tested on: RNA 6 (RNA, aptamer) GGCAAGUACUCUGACGCCGGUGGCGCAGACAGAUUUCCAGUAUGGCACGGACCGGAGAGGGAAGGAUGACAGACGUGGCGUAGAGGAGGACAGCG; assay: elution from His–Phe–Sepharose by free ligand; conditions: 600 mM NaCl, 5 mM MgCl2, 5 mM CaCl2; 50 mM HEPES pH 7.0; 1.5 mM dipeptide
[10] = tested on: RNA 20 (RNA, aptamer) GGCAAGUACUCUGACGCGGAUGGGCCACAACGGAUCAGACGACAGGCAUUCUUUGAAGGAAAGAUCCCAGCAGAGCGGCGUAGAGGAGGACAGCG; assay: elution from His–Phe–Sepharose by free ligand; conditions: 600 mM NaCl, 5 mM MgCl2, 5 mM CaCl2; 50 mM HEPES pH 7.0; 1.5 mM dipeptide
[11] = tested on: RNA 35 (RNA, aptamer) GGCAAGUACUCUGACGCGUGGGAAGAUACGUGUAUACGCUAACAUACGGCAAGGUGAGUAGCCGGAAGUAGCAUGUGGCGUAGAGGAGGACAGCG; assay: elution from His–Phe–Sepharose by free ligand; conditions: 600 mM NaCl, 5 mM MgCl2, 5 mM CaCl2; 50 mM HEPES pH 7.0; 1.5 mM dipeptide
[12] = tested on: RNA 23 (RNA, aptamer) GGCAAGUACUCUGACGCGGAUGGGCCAACGGCGAGCGUCGAAGGAGCUUAGUACCGAAGCAACGCAAGCGUAGAGCGGCGUAGAGGAGGACAGCG; assay: elution from His–Phe–Sepharose by free ligand; conditions: 600 mM NaCl, 5 mM MgCl2, 5 mM CaCl2; 50 mM HEPES pH 7.0; 1.5 mM dipeptide
[13] = tested on: RNA 44 (RNA, aptamer) GGCAAGUACUCUGACGCUAGGCAGCGGCGAGGGAAGUUGGAGCUUAGACCAGUUAGGAGCUGGAGACCAGGCAGUCGGCGUAGAGGAGGACAGCG; assay: affinity column elution; conditions: 600 mM NaCl, 5 mM MgCl2, 5 mM CaCl2; 50 mM HEPES pH 7.0
[14] = tested on: RNA 39 (RNA, aptamer) GGCAAGUACUCUGACGCGGAUGGGCCACCAAAGCACCGAAGGGUAGGAGCCACUAACUUGCGGUGAAUGGAAGAGCGGCGUAGAGGAGGACAGCG; assay: elution from His–Phe–Sepharose by free ligand; conditions: 600 mM NaCl, 5 mM MgCl2, 5 mM CaCl2; 50 mM HEPES pH 7.0; 1.5 mM dipeptide
[15] = tested on: RNA 33 (RNA, aptamer) GGCAAGUACUCUGACGCGCCGAAAUGGGAGGGGUGGCGUUAACCGGCAAAGCUGCACGGGCGAUGAAGAAACGCGGGGCGUAGAGGAGGACAGCG; assay: elution from His–Phe–Sepharose by free ligand; conditions: 600 mM NaCl, 5 mM MgCl2, 5 mM CaCl2; 50 mM HEPES pH 7.0; 1.5 mM dipeptide
[16] = tested on: RNA 12 (RNA, aptamer) GGCAAGUACUCUGACGCGUGCUGCGGGCCGUUCAUAGUGGACGGGGUAGACAGAGAACCUUAGACCAAGGUAUCGGCGCGUAGAGGAGGACAGCG; assay: elution from His–Phe–Sepharose by free ligand; conditions: 600 mM NaCl, 5 mM MgCl2, 5 mM CaCl2; 50 mM HEPES pH 7.0; 1.5 mM dipeptide

Row | SMILES | K D [1] [mM] | K D [2] [mM] | K D [3] [mM] | K D [4] [mM] | binding [5] | binding [6] | binding [7] | binding [8] | binding [9] | binding [10] | binding [11] | binding [12] | binding [13] | binding [14] | binding [15] | binding [16]
1 | NCC(=O)N[C@@H](Cc1ccccc1)C(=O)O (H-Gly-Phe-OH) | 9.3 | 31.6 | > 34 | > 727 |  |  |  |  |  |  |  |  |  |  |  | 
2 | N[C@@H](Cc1ccccc1)C(=O)O | > 227 | 22 | > 34 | > 727 |  |  |  |  |  |  |  |  | yes |  |  | 

Now from value to compound:

Row | K D [1] [mM] | K D [2] [mM] | K D [3] [mM] | K D [4] [mM] | binding [5] | binding [6] | binding [7] | binding [8] | binding [9] | binding [10] | binding [11] | binding [12] | binding [13] | binding [14] | binding [15] | binding [16] | SMILES
3 | 3.4 | 10.5 | 5.4 | 8.2 |  |  |  |  |  |  |  |  |  |  |  |  | N[C@@H](Cc1c[nH]cn1)C(=O)NCC(=O)O (H-His-Gly-OH)
4 | 0.077 ± 0.007 | 0.478 ± 0.061 | 0.102 ± 0.033 | 0.036 ± 0.002 | yes | yes | yes | yes | yes | yes | yes | yes | yes | yes | yes | yes | N[C@@H](Cc1cnc[nH]1)C(=O)N[C@@H](Cc1ccccc1)C(=O)O (H-His-Phe-OH)
5 | > 227 | > 119 | > 34 | > 727 |  |  |  |  |  |  |  |  | no |  |  |  | N[C@@H](Cc1cnc[nH]1)C(=O)O
